Experimental data taken from patent publication US4198512A, “1-Oxo-1,2-dihydroisoquinoline derivatives” (Yamanouchi Pharmaceutical Co., Ltd., priority 1977, dated 1980).

Columns and labels:
[1] = Carrageenin-induced edema; format: in vivo, Male Wister rats; conditions: oral, 1 h before carrageenin, rat hind paw, 3 h
Method: (a) Carrageenin-induced edema
Male Wister rats (weighing 130-170 g.), one group being 6 rats, fasted overnight were used. According to Winter's method [Proc. Soc. Exp. Biol. Med., 111,544 (1962)], 0.1 ml. of 1% carrageenin [Iwai Kagaku Yakuhin K.K. Seakem] suspension in 0.9% saline was injected into the planter tissue of the left hind paw. After 3 hours, each rat was sacrificed by chloroform and the hind paw was cut and weighed immediately. By using the value obtained by subtracting the weight of the untreated hind paw from the weight of the hind paw having injected therein the carrageenin as the weight of edema, the inhibitory ratio of the sample administered rat groups to control groups was calculated. The sample was orally administered before one hour of the injection of Carrageenin.
In addition, the test samples used in the aforesaid tests (a) and (b) were prepared by suspending the test compounds in an aqueous 0.5% methyl cellulose solutions.

[2] = Whittle's method, writhing (acetic acid); format: in vivo, Male ICR-Mice; conditions: 50 mg/kg P.O., mice; 0.6% acetic acid i.p.
Method: (§1) Male ICR-Mice (weighting 25-35 g.), one group being 12 mice, fasted overnight were used in this test. The sample was orally administered, and 20 minutes after, 5 ml./Kg. of 0.4% Evance blue was injected intravenously and 10 minutes thereafter, 10 ml./Kg. of 0.6% acetic acid was injected intraperitoneally. The number of writhings after 20 minutes following the administration of acetic acid was recorded and after an additional 10 minutes, the mice were killed by dislocation of the neck, the dye leaked in the abdominal cavity was washed out with 5 ml. of 0.9% saline to make the total amount 10 ml., and thereafter furs, blood corpuscles, etc., intermingled were removed by centrifugal separation at 3,000 r.p.m. for 5 minutes. Furthermore, to prevent turbidity caused by protein, 0.1 ml. of an aqueous 0.1 normal sodium hydroxide was added and then the absorbance at 590 nm was measured. The inhibition ratio of the sample administered rat groups to control groups was calculated.

[3] = 50 mg/kg
Method: as §1

| SMILES | Inhibition (Carrageenin-induced edema) ([1]; 50 mg/kg) | Inhibition (Carrageenin-induced edema) ([1]; 100 mg/kg) | Inhibition (%) Writhing [2] | Inhibition (%) Permeability [3] |
| --- | --- | --- | --- | --- |
| Cn1c(S(C)(=O)=O)cc2ccccc2c1=O [Ex. 5, 2-methyl-3-methylsulfonyl-1-oxo-1,2-dihydroisoquinoline] | 50.7% | 68.1% | 45.8% | 47.1% |
| CCn1c(SC)cc2ccccc2c1=O [Ex. 2, 2-ethyl-3-methylthio-1-oxo-1,2-dihydroisoquinoline] | 38.5% | – | – | – |
| Cn1c([S+](C)[O-])cc2ccccc2c1=O (centres unmarked) [Ex. 4, 2-methyl-3-methylsulfinyl-1-oxo-1,2-dihydroisoquinoline] | 55.8% | 68.2% | 39.7% | 42.8% |
| CCCCC1C(=O)N(c2ccccc2)N(c2ccccc2)C1=O [Phenyl butazone, reference compound] | 44.5% | 51.2% | – | – |
| Cc1c(N(C)C)c(=O)n(-c2ccccc2)n1C [Aminopyrine, reference compound] | – | – | 58.1% | 41.7% |
| CSc1cc2ccccc2c(=O)n1C [Ex. 1, 2-methyl-3-methylthio-1-oxo-1,2-dihydroisoquinoline] | – | 57.3% | – | – |
